Assay results as given in US12583858B2 (Genentech, Inc., priority 2015, dated 2026).

biological target: T1, TDO2 (Homo sapiens, UniProt P48775); experiment: TDO2 cell assay (NFK GreenScreen, SW48 cells); assay type: cell-based; details: SW48 cells (high TDO expressing), 200 uM tryptophan, 24 hours; Table 3; read-out: TDO2 Cell Fluor EC50
T1 construct: decreased levels of NFK in SW48 cells (high TDO expressing cells)
T1 sequence (P48775 whole entry): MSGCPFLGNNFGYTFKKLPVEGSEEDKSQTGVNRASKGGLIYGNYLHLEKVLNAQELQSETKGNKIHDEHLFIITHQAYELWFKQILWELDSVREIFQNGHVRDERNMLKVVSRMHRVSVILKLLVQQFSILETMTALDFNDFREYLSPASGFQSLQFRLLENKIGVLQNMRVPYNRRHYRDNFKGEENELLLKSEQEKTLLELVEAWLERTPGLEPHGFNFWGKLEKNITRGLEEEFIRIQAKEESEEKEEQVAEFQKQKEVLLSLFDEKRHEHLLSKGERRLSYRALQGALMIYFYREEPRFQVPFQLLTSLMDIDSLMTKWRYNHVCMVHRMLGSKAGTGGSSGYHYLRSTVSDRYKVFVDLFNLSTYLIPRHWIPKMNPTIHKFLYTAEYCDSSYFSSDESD

Structure (SMILES) | EC50 [µM]
OC1c2cccnc2CCC1C1c2ccccc2-c2cncn21 (single isomer, unassigned) [Example 31e] | 1.1
O[C@@H]1c2cnccc2CC[C@@H]1[C@H]1c2ccccc2-c2cncn21 (single isomer, unassigned) [Example 04d] | 20
O=S(=O)(C1CC1)N1CC[C@@H]([C@H]2c3ccccc3-c3cncn32)[C@H](O)C1 (single isomer, unassigned) [Example 77a] | > 25
CS(=O)(=O)N1CCC(O)C(C2c3ccc(F)cc3-c3cncn32)C1 (single isomer, unassigned) [Example 118c] | 13
Nc1ccc2c(n1)CCC(C1c3ccccc3-c3cncn31)C2O (single isomer, unassigned) [Example 121d] | 17
O[C@H]1CC[C@@H]1[C@H]1c2ccccc2-c2cncn21 [Example 01e, (1S,2R)-2-((S)-5H-imidazo[5,1-a]isoindol-5-yl)cyclobutan-1-ol] | 1.1
OC1CCOCC1C1c2cccc(F)c2-c2cncn21 (single isomer, unassigned) [Example 170d] | 13
O=S(=O)(C1CC1)N1CC[C@@H](O)[C@H]([C@H]2c3ccccc3-c3cncn32)C1 (single isomer, unassigned) [Example 70b] | 1.1
O[C@@H]1CC[C@@H]1[C@@H]1c2ccccc2-c2cncn21 [Example 01a, (1R,2R)-2-((R)-5H-imidazo[5,1-a]isoindol-5-yl)cyclobutan-1-ol] | 14
Cn1cc2c(n1)C(O)C(C1c3ccccc3-c3cncn31)CC2 (single isomer, unassigned) [Example 139-1e] | > 25
OC1CCCC1C1c2ccccc2-c2cncn21 (single isomer, unassigned) [Example 02e] | 17
O[C@@H]1c2c(Cl)cnn2CC[C@@H]1[C@H]1c2ccccc2-c2cncn21 (single isomer, unassigned) [Example 160c] | 23
Cn1ncc2c1CCC(C1c3ccccc3-c3cncn31)C2O (single isomer, unassigned) [Example 93d] | 1.4
NS(=O)(=O)c1ccc2c(c1)C(O)C(C1c3ccccc3-c3cncn31)CC2 (single isomer, unassigned) [Example 105b] | 8.6
OC1c2ccnn2CCCC1C1c2ccccc2-c2cncn21 (single isomer, unassigned) [Example 133f] | > 25
O[C@@H]1c2cccn2CC[C@@H]1[C@@H]1c2ccccc2-c2cncn21 [Example 136b, (7R,8S)-7-((R)-5H-imidazo[5,1-a]isoindol-5-yl)-5,6,7,8-tetrahydroindolizin-8-ol] | > 25
CC[C@H](O)[C@@H]1c2ccccc2-c2cncn21 [Example 137b, (S)-1-((S)-5H-imidazo[5,1-a]isoindol-5-yl)propan-1-ol] | 7.9
CC1(O)CCOCC1C1c2ccccc2-c2cncn21 (single isomer, unassigned) [Example 61c] | 9.1
Nc1ncc2c(n1)CCC(C1c3ccccc3-c3cncn31)C2O (single isomer, unassigned) [Example 111g] | > 25
NS(=O)(=O)c1ccc2c(c1)CCC(C1c3ccccc3-c3cncn31)C2O (single isomer, unassigned) [Example 100d] | > 25

Structure (SMILES) | EC50 [µM]
OC1(C2c3ccccc3-c3cncn32)CCOC1 (single isomer, unassigned) [Example 129d] | 2.6
OC1c2cnncc2CCC1C1c2ccccc2-c2cncn21 (single isomer, unassigned) [Example 112e] | > 25
OC(c1ccncc1)C1c2ccccc2-c2cncn21 (single isomer, unassigned) [Example 152d] | > 25
NC(=O)c1ccc2c(n1)CCC(C1c3ccccc3-c3cncn31)C2O (single isomer, unassigned) [Example 104h] | 20
OC1c2ccnn2CCCC1C1c2ccccc2-c2cncn21 (single isomer, unassigned) [Example 133b] | 0.94
OC1COCCC1C1c2cc(F)ccc2-c2cncn21 (single isomer, unassigned) [Example 75-1d] | > 25
OC1c2cnccc2CCC1C1c2ccccc2-c2cncn21 (single isomer, unassigned) [Example 04c] | 1
O=S(=O)(C1CC1)N1CC[C@@H](O)[C@H]([C@@H]2c3ccccc3-c3cncn32)C1 (single isomer, unassigned) [Example 70c] | > 25
NS(=O)(=O)c1ccc2c(c1)CCC(C1c3ccccc3-c3cncn31)C2O (single isomer, unassigned) [Example 100f] | 15
O[C@H]1COCC[C@@H]1[C@@H]1c2c(F)cccc2-c2cncn21 [Example 120b, (3R,4R)-4-((R)-6-fluoro-5H-imidazo[5,1-a]isoindol-5-yl)tetrahydro-2H-pyran-3-ol] | > 25
OC1C(C2c3ccc(F)cc3-c3cncn32)CC12CCOCC2 (single isomer, unassigned) [Example 109d] | 3.7
CCS(=O)(=O)N1CCC2(CCC(C3c4ccccc4-c4cncn43)C2O)CC1 (single isomer, unassigned) [Example 76d] | 15
CS(=O)(=O)N1CCC(O)C(C2c3ccccc3-c3cncn32)CC1 (single isomer, unassigned) [Example 92a] | 1.2
Nc1ccc2c(n1)CCC(C1c3ccccc3-c3cncn31)C2O (single isomer, unassigned) [Example 121g] | > 25
N#CC1CCC(O)(C2c3ccccc3-c3cncn32)CC1 (single isomer, unassigned) [Example 145c] | 19
Cc1ccc2c(c1)C(C1COCC1O)n1cncc1-2 (single isomer, unassigned) [Example 110c] | 3.9
OC1COCC1C1c2ccccc2-c2cncn21 (single isomer, unassigned) [Example 26d] | > 25
N#Cc1cnc2c(c1)CCC(C1c3ccccc3-c3cncn31)C2O (single isomer, unassigned) [Example 107a] | 17
CN(C)C(=O)c1ccc2c(c1)CCC(C1c3ccccc3-c3cncn31)C2O (single isomer, unassigned) [Example 98e] | 22

Now from value to molecule:

EC50 [µM] | Structure (SMILES)
0.43 | OC1c2cncn2CC[C@H]1[C@H]1c2ccccc2-c2cncn21 (stereo in doubt) [Example 07c, (7S,8R)-7-((S)-5H-imidazo[5,1-a]isoindol-5-yl)-5,6,7,8-tetrahydroimidazo[1,5-a]pyridin-8-ol]
0.1 | OC1CCCCCC1C1c2ccccc2-c2cncn21 (single isomer, unassigned) [Example 115d, 2-(5H-imidazo[5,1-a]isoindol-5-yl)cycloheptan-1-ol]
0.18 | OC1c2ccccc2CC1C1c2ccccc2-c2cncn21 (single isomer, unassigned) [Example 19c]
0.75 | CC(C)(C)OC(=O)N1CC2(CC(C3c4ccccc4-c4cncn43)C2O)C1 (single isomer, unassigned) [Example 41h, tert-butyl 7-hydroxy-6-(5H-imidazo[1,5-b]isoindol-5-yl)-2-azaspiro[3.3]heptane-2-carboxylate]
0.46 | NS(=O)(=O)c1ccc2c(c1)C(O)C(C1c3ccccc3-c3cncn31)CC2 (single isomer, unassigned) [Example 105e]
0.93 | OC1c2nonc2CCC1C1c2ccccc2-c2cncn21 (single isomer, unassigned) [Example 163h]
0.51 | O[C@@H]1c2ccncc2CC[C@@H]1[C@H]1c2ccccc2-c2cncn21 (single isomer, unassigned) [Example 08d]
0.087 | CS(=O)(=O)N1CC[C@@H]([C@@H]2c3ccccc3-c3cncn32)[C@H](O)C1 (single isomer, unassigned) [Example 64b]
0.39 | CCS(=O)(=O)N1CCC2(CC1)CC(C1c3ccccc3-c3cncn31)C2O (single isomer, unassigned) [Example 114a]
0.73 | OC1COCCC1C1c2cccc(F)c2-c2cncn21 (single isomer, unassigned) [Example 99d]
0.32 | OC1CCC(F)(F)CC1C1c2ccccc2-c2cncn21 (single isomer, unassigned) [Example 18c, 4,4-difluoro-2-(5H-imidazo[5,1-a]isoindol-5-yl)cyclohexan-1-ol]
0.067 | O[C@@H]1c2ncsc2CC[C@H]1[C@H]1c2ccccc2-c2cncn21 [Example 125b, (4S,5S)-5-((S)-5H-imidazo[5,1-a]isoindol-5-yl)-4,5,6,7-tetrahydrobenzo[d]thiazol-4-ol]
0.3 | O[C@@H]1CC2(COC2)[C@H]1[C@@H]1c2ccccc2-c2cncn21 [Example 87b, (5S,6R)-5-((R)-5H-imidazo[5,1-a]isoindol-5-yl)-2-oxaspiro[3.3]heptan-6-ol]
0.7 | Nc1cc2n(n1)CC[C@@H]([C@H]1c3ccccc3-c3cncn31)[C@@H]2O [Example 161b, (4S,5S)-2-amino-5-((S)-5H-imidazo[5,1-a]isoindol-5-yl)-4,5,6,7-tetrahydropyrazolo[1,5-a]pyridin-4-ol]
0.25 | N#Cc1cnn2c1C(O)C(C1c3ccccc3-c3cncn31)CC2 (single isomer, unassigned) [Example 156e]
0.8 | CC(C)(C)OC(=O)N1CC2(CC(C3c4ccccc4-c4cncn43)C2O)C1 (single isomer, unassigned) [Example 41b, tert-butyl 7-hydroxy-6-(5H-imidazo[1,5-b]isoindol-5-yl)-2-azaspiro[3.3]heptane-2-carboxylate]
0.2 | NS(=O)(=O)N1CCC2(CC1)CC(C1c3ccccc3-c3cncn31)C2O (single isomer, unassigned) [Example 181f]
0.12 | OC1C(C2c3ccccc3-c3cncn32)CCC12CCOCC2 (single isomer, unassigned) [Example 68f]
0.06 | CC1(C)C[C@H](O)[C@@H]1[C@H]1c2ccccc2-c2cncn21 [Example 22a, (1S,2S)-2-((S)-5H-imidazo[5,1-a]isoindol-5-yl)-3,3-dimethylcyclobutan-1-ol]
0.12 | Nc1ncc2c(n1)CCC(C1c3ccccc3-c3cncn31)C2O (single isomer, unassigned) [Example 111b]
